Patent US20240025903A1, “Bicyclic Compounds and Uses Thereof for the Treatment of Diseases” (Athira Pharma, Inc., priority 2020, published 2024)
Like-named read-outs stand apart in the source and are kept apart here.

What was measured:
[1] = In vitro stability in simulated gastric and intestinal fluids; type: in vitro ADME; conditions: 37° C.; for SGF + Enz (compound remaining after 4 hours): SGF with 3.2 mg/ml pepsin; for SGF + Enz (compound remaining after 4 hours) / SIF (compound remaining after 4 hours): 5 μM; for SGF (compound remaining after 4 hours): simulated gastric fluid pH 1.2, 5 μM; for SIF (compound remaining after 4 hours): simulated intestinal fluid pH 6.8 with 10 mg/ml pancreatin
Experimental: Bioavailability can be estimated by compound stability when exposed to conditions in the body. As an initial assessment of stability properties in a variety of conditions present in animals, exemplary compounds were tested for stability in a battery of simulated body compartments. Compounds were tested for stability in the following solutions: simulated gastric fluid (SGF: 34.2 mM NaCl, pH 1.2), simulated gastric fluid with the digestive enzyme pepsin (SGF+Enzyme: SGF with 3.2 mg/ml pepsin), simulated intestinal fluid with the mixture of enzymes in porcine pancreatin (SIF+Enzyme: 28.7 mM NaH2PO4, 105.7 mM NaCl, pH 6.8, 10 mg/ml pancreatin), rat plasma, and human plasma.
Test compounds were incubated at a final concentration of 5 μM in the above solutions at 37° C. with samples removed at the following time points: 0, 1, 2, and 4 hours. Reactions were stopped and prepared for quantification by addition of excess quench solution containing an internal standard (acetonitrile, 200 ng/mL bucetin). Test compound and internal standard in each sample was quantified by LC-MS/MS, and after internal normalization to bucetin, test compound concentration was expressed as a percentage of concentration at the 0-hour time point. Stability in the relevant test solution was then determined by the percent remaining at the 4-hour time point.

MDCK cells = experiment: Cell scattering behavior assay; type: cell-based; conditions: 5 ng/mL HGF, 24 hours, normalized particle count vs HGF alone
Summary of the method: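 MDCK cells starved 2 h in serum-free DMEM, then treated 24 h at 37 °C with compounds plus 5 ng/mL HGF. Cells were ethanol-fixed, WGA488-stained and imaged. Scattering was scored as particle count normalized to stained area, with activity taken as a statistical increase in normalized particle count over HGF alone.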

[2] = Parallel artificial membrane permeability assay (PAMPA); type: in vitro ADME; conditions: PBS, room temperature
Experimental: Bioavailable drugs must permeate the cellular membranes of the lining of the digestive tract. To estimate the penetrability of exemplary compounds, the in vitro parallel artificial membrane permeability assay (PAMPA) was utilized.
Test compounds must have a standard curve in the final read plate to determine partitioned concentration of each drug. A 6-point standard curve was prepared for each compound from 0 to 200 μM in phosphate-buffered saline (PBS).
Test compound solution (300 μL in PBS) was added to the donor (bottom) well of the PAMPA plate in 5 replicates and PBS vehicle (200 μL) was added to the acceptor (top) wells of appropriate wells to match the loading of the donor plate. The bottom and top of the PAMPA plates were then sandwiched together. The PAMPA plates were then incubated at room temperature for 5 hours. After incubation, 150 μL of donor solution was added to a UV compatible plate containing the corresponding standard curve. 150 μL of acceptor well solution was added adjacent to the corresponding standard curve and donor well samples for that compound. The plate was then read using a UV plate reader.
Permeability and membrane retention were then calculated based on the following formulas:
Permeability (cm/s): (Pe)(cm/s)={−ln [1−CA(t)/Ceq]}/[A*(1/VD+1/VA)*t] (equation 1) • where: • A=filter area (0.3 cm^2); • VD=donor well volume (0.3 mL); • VA=acceptor well volume (0.2 mL); • t=incubation time (seconds); • CA(t)=compound concentration in acceptor well at time t; • CD(t)=compound concentration in donor well at time t; and • Ceq=[CD(t)*VD+CA(t)*VA]/(VD+VA).
Membrane Retention (R)=1−[CD(t)*VD+CA(t)*VA]/(C0*VD) (equation 2) • where: • CD(t), VD, CA(t), and VA are as defined for equation 1, and • C0=initial concentration in donor well (200 uM).

[3] = Non-specific protein binding (rapid equilibrium dialysis); type: in vitro ADME, Sprague-Dawley rats; conditions: both sexes, Sprague-Dawley, RED device, 4-hour incubation at 37° C.
Experimental: Plasma and tissue exposures of exemplary compounds were scaled by their non-specific affinity for protein binding in target tissues or fluids to determine the fraction of compound available for interaction with the target. Non-specific binding was determined in blood plasma and brain homogenate collected from mixed-sex Sprague-Dawley rats.
Known concentrations of test compounds were mixed with plasma or brain homogenate and incubated in the donor chamber of a rapid equilibrium dialysis (RED) device with empty PBS buffer in the receiving chamber. After a 4-hour incubation at 37° C. in an orbital shaking incubator, compound in each chamber was quantified by LC-MS/MS. The unbound fraction (fu,tissue) was calculated using the following formula:
[formula] • where: • fu,tissue is the unbound fraction in the tissue; • fu,homogenate is the ratio of concentration in the buffer chamber to concentration in the sample chamber; and • D is the dilution factor used to produce the sample.

[4] = Oral availability calculation; type: in vivo, Sprague-Dawley rats; conditions: both sexes, Sprague-Dawley, plasma; rat, dose corrected AUC PO / dose corrected AUC IV x 100
Description: Oral bioavailability is critical to developing small molecule therapeutics for oral administration. Calculations of oral bioavailability (% F) are accomplished by comparing in vivo pharmacokinetic data (Example B7) using IV dosing as the maximum possible exposure and determining the exposure rate after PO administration. In these studies, dose corrected AUC from PO administration was divided by dose corrected AUC from IV administration and multiplied by 100 to yield the % F. Results are shown in Table 9.

[5] = rat blood plasma, read-out: Unbound Fraction Plasma
[6] = rat brain homogenate, read-out: Unbound Fraction Brain

| Structure (SMILES) | SGF + Enz (compound remaining after 4 hours) [1] | SGF (compound remaining after 4 hours) [1] | SIF (compound remaining after 4 hours) [1] | Potency (cell scattering) (MDCK cells) | Papp at 5 h, 200 µM [2] [×10⁻⁶ cm/s] | fraction unbound at 4 h [3, 5] | fraction unbound at 4 h [3, 6] | bioavailability [4] [%] |
| --- | --- | --- | --- | --- | --- | --- | --- | --- |
| CCC(C)CN1CC2N(Cc3ccc(OC(F)F)cc3)CCC(=O)N2[C@@H](C)C1=O (some centres unmarked) [Compound 6a] | + (+ indicates 20-39% compound remaining after 4 hours) | +++ (+++ indicates 80-99% compound remaining after 4 hours) | ++ (++ indicates 40-79% compound remaining after 4 hours) | +++ (+++ indicates maximum potency at or above 1 nM) | < 2 | 0.1 to 0.5 | < 0.1 | 1 to 25 |
| C=CCCN1CC2N(C(=O)c3ccc(C(F)(F)F)cc3)CCC(=O)N2C(C)C1=O (centres unmarked) [Compound 22] | +++ (+++ indicates 80-99% compound remaining after 4 hours) | +++ (+++ indicates 80-99% compound remaining after 4 hours) | +++ (+++ indicates 80-99% compound remaining after 4 hours) | ++ (++ indicates maximum potency at or above 10 nM) | < 2 | 0.1 to 0.5 | > 0.9 | 25 to 50 |
| CCC(C)CN1CC2N(C(=O)c3ccc(OC(F)F)cc3)CCC(=O)N2[C@@H](C)C1=O (some centres unmarked) [Compound 2a] | +++ (+++ indicates 80-99% compound remaining after 4 hours) | ++++ (++++ indicates 100% compound remaining after 4 hours) | ++++ (++++ indicates 100% compound remaining after 4 hours) | + (+ indicates maximum potency at or above 100 nM) | < 2 | 0.5 to 0.9 | 0.1 to 0.5 | 25 to 50 |
| CCC(C)CN1CC2N(C(=O)c3ccc(F)cc3)CCC(=O)N2C(C)C1=O (centres unmarked) [Compound 11, 1-(4-fluorobenzoyl)-6-methyl-8-(2-methylbutyl)hexahydro-4H-pyrazino[1,2-a]pyrimidine-4,7(6H)-dione] | +++ (+++ indicates 80-99% compound remaining after 4 hours) | +++ (+++ indicates 80-99% compound remaining after 4 hours) | ++++ (++++ indicates 100% compound remaining after 4 hours) | ++ (++ indicates maximum potency at or above 10 nM) | > 2 | < 0.1 | 0.1 to 0.5 | 25 to 50 |
